Results on 22 compounds are retold here after patent US7449477B2, “7-phenyl-isoquinoline-5-sulfonylamino derivatives as inhibitors of akt (protein kinase B)” (Eli Lilly and Company, priority 2003, dated 2008).

Counter-ions that a name gives are not always drawn.

Broadly, the IC50 is the concentration that gives 50% inhibition.

The target in this test is T1, active human Akt1 (Homo sapiens, UniProt P31749).
T1 construct: Active human recombinant Akt1 (full-length) purified from Sf9 insect cells; purchased Upstate Biotechnology, Inc. 14-276; host or cells: Sf9 insect cells
T1 sequence (P31749 whole entry): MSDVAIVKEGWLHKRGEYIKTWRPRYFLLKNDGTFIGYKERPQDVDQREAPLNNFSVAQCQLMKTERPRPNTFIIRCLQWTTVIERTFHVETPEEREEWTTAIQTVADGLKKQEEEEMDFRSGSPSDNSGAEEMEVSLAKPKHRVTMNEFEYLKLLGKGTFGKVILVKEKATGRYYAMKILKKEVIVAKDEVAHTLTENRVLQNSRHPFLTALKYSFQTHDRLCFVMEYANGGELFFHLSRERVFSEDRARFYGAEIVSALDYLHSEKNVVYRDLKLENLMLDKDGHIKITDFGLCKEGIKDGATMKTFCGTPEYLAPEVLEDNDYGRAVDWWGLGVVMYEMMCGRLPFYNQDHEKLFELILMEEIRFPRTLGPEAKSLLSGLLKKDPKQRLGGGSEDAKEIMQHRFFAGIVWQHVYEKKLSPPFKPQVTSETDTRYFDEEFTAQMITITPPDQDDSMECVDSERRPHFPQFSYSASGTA
In words: Akt1 Phosphorylation Assay (phosphocellulose filter-binding, 33P-Crosstide). It counts as biochemical. Particulars: active human recombinant Akt1 (full-length) 10 nM; 12.5 μM Crosstide; 20 μM ATP; 30 minutes at room temperature. As for the experimental part: Akt1 Phosphorylation Assay
The assay described measures the phosphorylation of Crosstide by active human Akt1 and other Akt isoforms. Crosstide contains a consensus sequence derived from Akt substrates GSK3b and forkhead transcription factors (FKs). The ^33P-labeled Crosstide substrate is captured by phosphocellulose membrane filter plates.
Active human recombinant Akt1 (full-length) purified from Sf9 insect cells is from Upstate Biotechnology, Inc. (Cat. #14-276, 405 μg/ml). Crosstide substrate, NH2-GRPRTSSFAEG-COOH (M.W.1164) is purchased from Multiple Peptide System (Cat. # L59/GR145-153).
Solution (A): 20% DMSO (dimethylsulphoxide) or Compound in 20% DMSO; Solution (B): Assay Buffer Mix: 31.25 μM Crosstide, 37.5 mM MgCl2, 87.5 mM HEPES, pH 7.3, 50 μM ATP γ-^33P-ATP, 0.05 μCi/μl; Solution (C): Akt Kinase Mix: 31.25 mM HEPES, pH 7.3; 1 mM DTT, 25 nM UBI Akt1.
Procedure for Phosphocellulose Filter-Binding Assay
Ten μl of Solution (A) are first mixed with 20 μl Solution (B). The enzymatic reaction is initiated by adding 20 μl Solution (C) to the mixture. (Final concentration or amount in a 50-μl reaction mix: 4% DMSO or various compound concentration in 4% DMSO; 12.5 μM Crosstide; 15 mM MgCl2; 35 mM HEPES, pH7.3; 20 μM ATP; 1 μCi γ-^33P-ATP; 0.4 mM DTT; 10 nM UBI Akt1.) The reactions are performed in 96-well microtiter plates.
After 30 minutes at room temperature, the reaction is terminated by adding 80 μl of 10% H3PO4. An aliquot of 100 μl from each well is transferred to the phosphocellulose filter plate (Millipore MultiScreen, Catalog #MAPHN0B50). After 30 minutes, the reaction mix is filtered with a Millipore manifold following by 3 washes with 0.5% H3PO4. The filter is then vacuum-dried and the plate is fitted onto a Packard carrier. 100 μl/well Microscint20 are added and the contents are counted in a Packard Top Count.
In the case of `CN(C)CCOc1cc(Cl)ccc1CCCNCCNS(=O)(=O)c1cc(-c2ccccc2)cc2cnccc12` [Example 59, 7-Phenyl-isoquinoline-5-sulfonic acid {2-[3-(4-chloro-2-(2-dimethylamino-ethoxy)-phenyl)-propylamino]-ethyl}-amide, dihydrochloride salt], the IC50 is no more than 2 µM.

For the compound `O=[N+]([O-])c1ccc([C@H](O)CCNCCNS(=O)(=O)c2cc(-c3ccccc3)cc3cnccc23)cc1` [Example 81, (R)-7-Phenyl-isoquinoline-5-sulfonic acid [2-(3-hydroxy-3-(4-nitrophenyl)-propylamino)-ethyl]-amide, mesylate salt], the IC50 is no more than 2 µM. For the compound `Cc1ccc([N+](=O)[O-])cc1CCCNCCNS(=O)(=O)c1cc(-c2ccccc2)cc2cnccc12` [Example 39, 7-Phenyl-isoquinoline-5-sulfonic acid {2-[3-(2-methyl-5-nitrophenyl)-propylamino]-ethyl}-amide, dihydrochloride salt], the IC50 is no more than 2 µM. Then `O=[N+]([O-])c1ccc(CCCNCCNS(=O)(=O)c2cc(-c3ccccc3)cc3cnccc23)cc1` [Example 3, 7-Phenyl-isoquinoline-5-sulfonic acid {2-[3-(4-nitrophenyl)-propylamino]-ethyl}-amide, dihydrochloride salt], with no more than 2 µM; and `N#Cc1ccc(C(O)C(O)CNCCNS(=O)(=O)c2cc(-c3ccccc3)cc3cnccc23)cc1` (stereo not shown) [Example 112, 7-Phenyl-isoquinoline-5-sulfonic acid {2-[3-(4-cyano-phenyl)-2,3-dihydroxy-propylamino]-ethyl}-amide, dihydrochloride salt], with no more than 2 µM; and `O=S(=O)(NCCNCCCc1ccc(Br)cc1)c1cc(-c2ccccc2)cc2cnccc12` [Example 4, 7-Phenyl-isoquinoline-5-sulfonic acid {2-[3-(4-bromophenyl)-propylamino]-ethyl}-amide, dihydrochloride salt], with no more than 2 µM.

`O=[N+]([O-])c1ccc(CCCNCCNS(=O)(=O)c2cc(-c3ccc(O)cc3)cc3cnccc23)cc1` [Example 98, 7-(4-hydroxy-phenyl)-isoquinoline-5-sulfonic acid {2-[3-(4-nitro-phenyl)-propylamino]-ethyl}-amide, dihydrochloride salt]: the IC50 was no more than 2 µM. Then `Nc1cccc(-c2cc(S(=O)(=O)NCCNCCCc3ccc([N+](=O)[O-])cc3)c3ccncc3c2)c1` [Example 92, 7-(3-aminophenyl)-isoquinoline-5-sulfonic acid [2-(3-(4-nitrophenyl)-propylamino)-ethyl]-amide, trihydrochloride salt], with no more than 2 µM; and `O=[N+]([O-])c1ccc(CCCNCCNS(=O)(=O)c2cc(-c3cccc(O)c3)cc3cnccc23)cc1` [Example 99, 7-(3-hydroxy-phenyl)-isoquinoline-5-sulfonic acid {2-[3-(4-nitro-phenyl)-propylamino]-ethyl}-amide, dihydrochloride salt], with no more than 2 µM; and `Nc1ccc(CCCNCCNS(=O)(=O)c2cc(-c3ccccc3)cc3cnccc23)cc1` [Example 72, 7-Phenyl-isoquinoline-5-sulfonic acid [2-(3-(4-aminophenyl)-propylamino)-ethyl]-amide, dihydrochloride salt], with no more than 2 µM. With `O=S(=O)(NCCNCCCc1cccc(O)c1)c1cc(-c2cccc(O)c2)cc2cnccc12` [Example 107, 7-(3-Hydroxy-phenyl)-isoquinoline-5-sulfonic acid {2-[3-(3-hydroxy-phenyl)-propylamino]-ethyl}-amide] the figure was no more than 2 µM; with `O=S(=O)(NCCNCCCc1ccc(Cl)cc1Cl)c1cc(-c2ccccc2)cc2cnccc12` [Example 65, 7-Phenyl-isoquinoline-5-sulfonic acid {2-[3-(2,4-dichlorophenyl)-propylamino]-ethyl}-amide, dihydrochloride salt], no more than 2 µM.

As to `O=[N+]([O-])c1cccc(-c2cc(Cl)ccc2CCCNCCNS(=O)(=O)c2cc(-c3ccccc3)cc3cnccc23)c1` [Example 47, 7-Phenyl-isoquinoline-5-sulfonic acid {2-[3-(5-chloro-3′-nitro-biphenyl-2-yl)-propylamino]-ethyl}-amide, dihydrochloride salt], the IC50 was no more than 2 µM.

`O=S(=O)(NCCNCCCc1ccc(Cl)cc1OC1CCNC1)c1cc(-c2ccccc2)cc2cnccc12` (stereo not shown) [Example 56, 7-Phenyl-isoquinoline-5-sulfonic acid {2-[3-(4-chloro-2-(pyrrolidin-3-yl)oxy-phenyl)-propylamino]-ethyl}-amide, trihydrochloride salt]: the IC50 is no more than 2 µM. For the compound `O=[N+]([O-])c1ccc(CCCNCCNS(=O)(=O)c2cc(-c3ccccc3)cc3cnccc23)c(Cl)c1` [Example 38, 7-Phenyl-isoquinoline-5-sulfonic acid {2-[3-(2-chloro-4-nitrophenyl)-propylamino]-ethyl}-amide, dihydrochloride salt], the IC50 is no more than 2 µM. On to `O=[N+]([O-])c1cccc(C(O)CCNCCNS(=O)(=O)c2cc(-c3ccccc3)cc3cnccc23)c1` (stereo not shown) [Example 77, 7-Phenyl-isoquinoline-5-sulfonic acid [2-(3-hydroxy-3-(3-nitrophenyl)-propylamino)-ethyl]-amide, dihydrochloride salt], for which the IC50 is no more than 2 µM.

For `O=S(=O)(NCCNCCCc1ccc(OC(F)F)cc1)c1cc(-c2ccccc2)cc2cnccc12` [Example 30, 7-Phenyl-isoquinoline-5-sulfonic acid {2-[3-(4-difluoromethoxy-phenyl)-propylamino]-ethyl}-amide, dihydrochloride salt], the IC50 is no more than 2 µM.

`O=S(=O)(NCCNCCCc1ccc(Cl)cc1OCCN1CCOCC1)c1cc(-c2ccccc2)cc2cnccc12` [Example 69, 7-Phenyl-isoquinoline-5-sulfonic acid (2-{3-[4-chloro-2-(2-morpholino-4-yl-ethoxy)-phenyl]-propylamino}-ethyl)-amide, dihydrochloride salt]: the IC50 was no more than 2 µM. Consider `N#Cc1ccc(CC(O)CNCCNS(=O)(=O)c2cc(-c3ccccc3)cc3cnccc23)cc1` (stereo not shown) [Example 111, 7-Phenyl-isoquinoline-5-sulfonic acid {2-[3-(4-cyano-phenyl)-2-hydroxy-propylamino]-ethyl}-amide, dihydrochloride salt, dihydrochloride salt, dihydrochloride salt, dihydrochloride …], for which the IC50 is no more than 2 µM.

Consider `Cc1cc(C#N)ccc1CCCNCCNS(=O)(=O)c1cc(-c2ccccc2)cc2cnccc12` [Example 104, 7-Phenyl-isoquinoline-5-sulfonic acid {2-[3-(4-cyano-2-methyl-phenyl)-propylamino]-ethyl}-amide, dihydrochloride salt], for which the IC50 was no more than 2 µM. As for `COc1ccc(CCCNCCNS(=O)(=O)c2cc(-c3ccc(O)cc3)cc3cnccc23)c(F)c1` [Example 108, 7-(4-Hydroxy-phenyl)-isoquinoline-5-sulfonic acid {2-[3-(2-fluoro-4-methoxy-phenyl)-propylamino]-ethyl}-amide], the IC50 is no more than 2 µM. Then `N#Cc1ccc(CCCNCCNS(=O)(=O)c2cc(-c3ccccc3)cc3cnccc23)cc1O` [Example 106, 7-Phenyl-isoquinoline-5-sulfonic acid {2-[3-(4-cyano-3-hydroxy-phenyl)-propylamino]-ethyl}-amide, bis-trifluoroacetate salt], with no more than 2 µM.
